Legend:
[1] = tested on: antibodies in sera from SARS patients (sera 1a, 1b, 2, 6, 37, 62, London, SARS-yellow, SARS-green); type: binding, human; set-up: Binding of serum 6 to linear peptides of protein X1 of SARS-CoV Urbani / Binding of serum 37 to linear peptides of protein X1 of SARS-CoV Urbani / Binding of serum 6 to looped/cyclic peptide (PEPSCAN-ELISA) / Binding of serum 37 to looped/cyclic peptide (PEPSCAN-ELISA) / Binding of serum 37 to looped/cyclic peptides of protein X1 of SARS-CoV Urbani / Binding of serum 6 to linear peptides of protein X2 / Binding of serum 37 to linear peptides of protein X2 / Binding of serum 37 to looped/cyclic peptides of protein X2 of SARS-CoV Urbani / Binding of serum 6 to linear peptides of protein M of SARS-CoV Urbani / Binding of serum 37 to linear peptides of protein M of SARS-CoV Urbani / Binding of serum 6 to looped/cyclic peptides of protein M of SARS-CoV Urbani / Binding of serum 37 to looped/cyclic peptides of protein M of SARS-CoV Urbani / Binding of serum 6 to linear peptides of protein X3 of SARS-CoV Urbani / Binding of serum 37 to linear peptides of protein X3 of SARS-CoV Urbani / Binding of serum 37 to looped/cyclic peptides of protein X3 of SARS-CoV Urbani / Binding of serum 6 to linear peptides of protein X4 of SARS-CoV Urbani / Binding of serum 37 to linear peptides of protein X4 of SARS-CoV Urbani / Binding of serum 37 to looped/cyclic peptides of protein X4 of SARS-CoV Urbani / Binding of serum 6 to linear peptides of protein X5 of SARS-CoV Urbani / Binding of serum 37 to linear peptides of protein X5 of SARS-CoV Urbani / Binding of serum 37 to looped/cyclic peptides of protein X5 of SARS-CoV Urbani / Binding of serum 6 to linear peptides of protein N of SARS-CoV Urbani / Binding of serum 37 to linear peptides of protein N of SARS-CoV Urbani / Binding of serum 6 to linear peptide (PEPSCAN-ELISA) / Binding of serum 1a to looped/cyclic peptides of protein N of SARS-CoV Urbani / Binding of serum 1b to looped/cyclic peptides of protein N of SARS-CoV Urbani / Binding of serum 2 to looped/cyclic peptides of protein N of SARS-CoV Urbani / Binding of serum 6 to looped/cyclic peptides of protein N of SARS-CoV Urbani / Binding of serum 37 to looped/cyclic peptides of protein N of SARS-CoV Urbani / Binding of serum 62 to looped/cyclic peptides of protein N of SARS-CoV Urbani / Binding of serum London to looped/cyclic peptides of protein N of SARS-CoV Urbani / Binding of serum SARS-green to looped/cyclic peptides of protein N of SARS-CoV Urbani: unit not given here
[2] = tested on: control sera (pooled serum of ten healthy LUMC hospital workers; commercial negative donor pooled serum from the Dutch bloodbank); type: binding, human; set-up: Binding of Control serum LUMC to linear peptides / Binding of Control serum Blood-bank to linear peptides / Binding of Control serum LUMC to looped peptides / Binding of Control Serum Blood-Bank to Looped peptides / Binding of Control serum LUMC to linear peptides of the protein M of SARS-CoV Urbani / Binding of Control serum Blood-bank to linear peptides of the protein M of SARS-CoV Urbani / Binding of Control serum LUMC to looped peptides of the protein M of SARS-CoV Urbani / Binding of Control Serum Blood-Bank to Looped peptides of the protein M of SARS-CoV Urbani: unit not given here
[3] = tested on: rabbit serum obtained by immunizing a rabbit with the SARS-CoV strain Frankfurt 1; type: binding; set-up: Binding of a rabbit serum to linear peptides / Binding of a rabbit serum to looped peptides / Rabbit serum linear peptides / Rabbit serum looped peptides / Binding of a rabbit serum to linear peptides of protein N of SARS-CoV Urbani (Rabbit serum linear peptides) / Binding of a rabbit serum to looped/cyclic peptides of protein N of SARS-CoV Urbani (Rabbit serum looped peptides): unit not given here
[4] = tested on: recombinant human anti-SARS-CoV antibody 03-018; type: binding; set-up: Binding of antibody 03-018 to linear peptides of the N protein of SARS-CoV Urbani / Binding of antibody 03-018 to looped/cyclic peptides of the N protein of SARS-CoV Urbani: unit not given here

Row | Sequence | Binding of serum 1a to looped/cyclic peptides of protein N of SARS-CoV Urbani [1] | Binding of serum 1b to looped/cyclic peptides of protein N of SARS-CoV Urbani [1] | Binding of serum 2 to looped/cyclic peptides of protein N of SARS-CoV Urbani [1] | Binding of serum 6 to looped/cyclic peptides of protein N of SARS-CoV Urbani [1] | Binding of serum 37 to looped/cyclic peptides of protein N of SARS-CoV Urbani [1] | Binding of serum 62 to looped/cyclic peptides of protein N of SARS-CoV Urbani [1] | Binding of serum London to looped/cyclic peptides of protein N of SARS-CoV Urbani [1] | Binding of serum SARS-green to looped/cyclic peptides of protein N of SARS-CoV Urbani [1] | Binding of serum SARS-yellow to looped/cyclic peptides of protein N of SARS-CoV Urbani [1] | Binding of Control Serum Blood-Bank to Looped peptides [2] | Binding of Control serum Blood-bank to linear peptides [2] | Binding of Control serum LUMC to linear peptides [2] | Binding of Control serum LUMC to looped peptides [2] | Binding of a rabbit serum to linear peptides of protein N of SARS-CoV Urbani (Rabbit serum linear peptides) [3] | Binding of a rabbit serum to looped/cyclic peptides of protein N of SARS-CoV Urbani (Rabbit serum looped peptides) [3] | Binding of antibody 03-018 to linear peptides of the N protein of SARS-CoV Urbani [4] | Binding of antibody 03-018 to looped/cyclic peptides of the N protein of SARS-CoV Urbani [4] | Binding of serum 1a to linear peptides of protein N of SARS-CoV Urbani [1] | Binding of serum 1b to linear peptides of protein N of SARS-CoV Urbani [1] | Binding of serum 2 to linear peptides of protein N of SARS-CoV Urbani [1] | also measured
1 | NFGDQDLIRQGTDYK | 0.2 | 0.1 | 0.2 | 0.1 | 0.4 | 0.3 | 0.3 | 0.2 | 0.1 | 0.5 | 0.8 | 0.7 | 0.4 | 0.1 | 0.1 | 0.1 | 0.2 | – | – | – | Binding of serum 1a to linear peptide (PEPSCAN-ELISA) [1]: 0.3; Binding of serum 1b to linear peptide (PEPSCAN-ELISA) [1]: 0.2; Binding of serum 2 to linear peptide (PEPSCAN-ELISA) [1]: 0.2; Binding of serum 6 to linear peptide (PEPSCAN-ELISA) [1]: 0.2; Binding of serum 37 to linear peptide (PEPSCAN-ELISA) [1]: 0.7; Binding of serum 62 to linear peptide (PEPSCAN-ELISA) [1]: 0.7; Binding of serum London to linear peptide (PEPSCAN-ELISA) [1]: 0.6; Binding of serum SARS-green to linear peptide (PEPSCAN-ELISA) [1]: 0.8; Binding of serum SARS-yellow to linear peptide (PEPSCAN-ELISA) [1]: 0.6
2 | NGARPKQRRPQGLPN | 0.3 | 0.2 | 0.3 | 0.4 | 0.6 | 0.5 | 0.5 | 0.4 | 0.4 | 0.6 | 0.7 | 0.6 | 0.6 | 0.1 | 0.3 | 0.1 | 0.3 | 0.2 | 0.1 | 0.2 | Binding of serum 6 to linear peptides of protein N of SARS-CoV Urbani [1]: 0.1; Binding of serum 37 to linear peptides of protein N of SARS-CoV Urbani [1]: 0.7; Binding of serum 62 to linear peptides of protein N of SARS-CoV Urbani [1]: 0.5; Binding of serum London to linear peptides of protein N of SARS-CoV Urbani [1]: 0.4; Binding of serum SARS-green to linear peptides of protein N of SARS-CoV Urbani [1]: 0.3; Binding of serum SARS-yellow to linear peptides of protein N of SARS-CoV Urbani [1]: 0.5
3 | NGGRNGARPKQRRPQ | 0.3 | 0.2 | 0.3 | 0.3 | 0.6 | 0.5 | 0.3 | 0.4 | 0.5 | 0.7 | 0.6 | 0.6 | 0.7 | 0.1 | 1.1 | 0.2 | 0.3 | 0.2 | 0.1 | 0.2 | Binding of serum 6 to linear peptides of protein N of SARS-CoV Urbani [1]: 0.2; Binding of serum 37 to linear peptides of protein N of SARS-CoV Urbani [1]: 0.7; Binding of serum 62 to linear peptides of protein N of SARS-CoV Urbani [1]: 0.7; Binding of serum London to linear peptides of protein N of SARS-CoV Urbani [1]: 0.5; Binding of serum SARS-green to linear peptides of protein N of SARS-CoV Urbani [1]: 0.5; Binding of serum SARS-yellow to linear peptides of protein N of SARS-CoV Urbani [1]: 0.5
4 | NGPQSNQRSAPRITF | 0.3 | 0.2 | 0.5 | 0.3 | 0.8 | 0.6 | 0.5 | 0.5 | 0.6 | 0.7 | 0.8 | 0.6 | 0.8 | – | – | – | – | 0.2 | 0.1 | 0.2 | Binding of serum 6 to linear peptides of protein N of SARS-CoV Urbani [1]: 0.2; Binding of serum 37 to linear peptides of protein N of SARS-CoV Urbani [1]: 0.8; Binding of serum 62 to linear peptides of protein N of SARS-CoV Urbani [1]: 0.5; Binding of serum London to linear peptides of protein N of SARS-CoV Urbani [1]: 0.4; Binding of serum SARS-green to linear peptides of protein N of SARS-CoV Urbani [1]: 0.4; Binding of serum SARS-yellow to linear peptides of protein N of SARS-CoV Urbani [1]: 0.5; Recognition of the peptide by the rabbit serum [3]: also recognized; Recognition of the peptide by antibody 03-018 [4]: recognized

— US20070128217A1 (priority 2003, published 2007)
